Source: patent publication US6632816B1, “Aromatic derivatives as HIV aspartyl protease inhibitors” (Pharmacor Inc., priority 2002, dated 2003)
pKi: −log10 of the molar value.

Target: HIV protease (Human immunodeficiency virus type 1 group M subtype B, UniProt P04585)
Test: biochemical
Excerpt: Enzymatic Assay for Determining the Inhibition Constant (Ki) of Synthetic Compounds Targeting the HIV Protease
This is a fluorometric assay based on the cleavage by protease of a substrate carrying a donor group (EDANS) and an acceptor group (DABCYL) on each side of the cleavage site, interacting together through fluorescence resonance energy transfer (FRET) as described by Matayoshi et al. (Science 247:954-954, 1990).
After calculation of Vo and Vi, the inhibition constant (Ki) of the compound is determined using the equation of Henderson: [formula]
where Vo=the enzyme's initial velocity
Vi=the enzyme velocity in the presence of the inhibitory compound,
[I]=inhibitor concentration, [S]=substrate concentration,
Km=Michaelis-Menten constant and Kiapp=apparent Ki
Graphs are traced and the Ki determined using GraphPad Prism software v.

How did the pKi turn out when CC(C)CN([C@H](CO)CCCCNC(=O)[C@H](Cc1ccc2ccccc2c1)NC(=O)C1CCCCC1)S(=O)(=O)c1ccc(N)cc1 [Example 42, (1S,5S)-Cyclohexanecarboxylic Acid (1-{5-[(4-Amino-benzenesulfonyl)-isobutyl-amino]-6-hydroxy-hexylcarbamoyl}-2-naphthalen-2-yl-ethyl)-amide] was run?
The pKi was 8.92.

With CC(C)CN([C@H](CO)CCCNC(=O)[C@H](Cc1cccc2ccccc12)NC(=O)C1CCCCC1)S(=O)(=O)c1ccc(N)cc1 [Example 13, (1S,4S)-Cyclohexanecarboxylic Acid (1-{4-[(4-Amino-benzenesulfonyl)-isobutyl-amino]-5-hydroxy-pentylcarbamoyl}-2-naphthalen-1-yl-ethyl)-amide] as the compound, how does the pKi read?
Its pKi is 8.64.

How did the pKi turn out when CC(=O)N[C@@H](Cc1ccc2ccccc2c1)C(=O)NCCCC[C@@H](CO)N(CC(C)C)S(=O)(=O)c1ccc(F)c(N)c1 [Example 89, (2S,5S)-2-Acetylamino-N-{5-[(3-amino-4-fluoro-benzenesulfonyl)-isobutyl-amino]-6-hydroxy-hexyl}-3-naphthalen-2-yl-propionamide] was run?
The pKi was greater than 8.42.

CC(C)CN([C@H](CO)CCCNC(=O)[C@@H](N)C(c1ccccc1)c1ccccc1)S(=O)(=O)c1ccc(N)cc1 [Example 24, (2S,4S)-2-Amino-N-{4-[(4-amino-benzenesulfonyl)-isobutyl-amino]-5-hydroxy-pentyl}-3,3-diphenyl-propionamide] was tested. Which pKi did it give?
Its pKi is 8.12.

How did the pKi turn out when CC(C)CN([C@H](CO)CCCCNC(=O)[C@@H](NC(=O)OCc1ccccn1)C(c1ccccc1)c1ccccc1)S(=O)(=O)c1ccc(N)cc1 [Example 95, (1S,5S)-(1-{5-[(4-Amino-benzenesulfonyl)-isobutyl-amino]-6-hydroxy-hexylcarbamoyl}-2,2-diphenyl-ethyl)-carbamic Acid Pyridin-2-ylmethyl Ester] was run?
The pKi was greater than 8.42.

COC(=O)N[C@@H](Cc1ccc2ccccc2c1)C(=O)NCCCC[C@@H](CO)N(CC(C)C)S(=O)(=O)c1ccc(N)c(F)c1 [Example 116, (1S,5S) (1-{5-[(4-Amino-3-fluoro-benzenesulfonyl)-isobutyl-amino]-6-hydroxy-hexylcarbamoyl}-2-naphthalen-2-yl-ethyl)-carbamic Acid Methyl Ester] was tested. Which pKi did it give?
Its pKi is greater than 8.42.

With COCC(=O)N[C@@H](Cc1cccc2ccccc12)C(=O)NCCC[C@@H](CO)N(CC(C)C)S(=O)(=O)c1ccc(N)cc1 [Example 19, (2S,4S)-N-{4-[(4-Amino-benzenesulfonyl)-isobutyl-amino]-5-hydroxy-pentyl}-2-(2-methoxy-acetylamino)-3-naphthalen-1-yl-propionamide] as the compound, how does the pKi read?
Its pKi is 8.59.

How did the pKi turn out when CC(C)CN([C@H](CO)CCCCNC(=O)[C@@H](NC(=O)N(C)C)C(c1ccccc1)c1ccccc1)S(=O)(=O)c1ccc(N)cc1 [Example 94, (2S,5S)-N-{5-[(4-Amino-benzenesulfonyl)-isobutyl-amino]-6-hydroxy-hexyl}-2-(3,3-dimethyl-ureido)-3,3-diphenyl-propionamide] was run?
Its pKi is greater than 8.42.

CC(C)CN([C@H](CO)CCCCNC(=O)[C@@H](N)Cc1ccc2ccccc2c1)S(=O)(=O)c1ccc(N)c(F)c1 [Example 113, (2S,5S)-2-Amino-N-{5-[(4-amino-3-fluoro-benzenesulfonyl)-isobutyl-amino]-6-hydroxy-hexyl}-3-naphthalen-2-yl-propionamide] was tested. Which pKi did it give?
The pKi was greater than 8.42.

Cc1ccc(C(=O)N[C@H](C(=O)NCCCC[C@@H](CO)N(CC(C)C)S(=O)(=O)c2ccc(N)cc2)C(c2ccccc2)c2ccccc2)cn1 [Example 112, (1S,5S)-N-(1-{5-[(4-Amino-benzenesulfonyl)-isobutyl-amino]-6-hydroxy-hexylcarbamoyl}-2,2-diphenyl-ethyl)-6-methyl-nicotinamide] was tested. Which pKi did it give?
The pKi was greater than 8.42.

With CC(C)CN([C@H](CO)CCCCNC(=O)[C@@H](NC(=O)OCc1cccnc1)C(c1ccccc1)c1ccccc1)S(=O)(=O)c1ccc(N)cc1 [Example 100, (1S,5S)-(1-{5-[(4-Amino-benzenesulfonyl)-isobutyl-amino]-6-hydroxy-hexylcarbamoyl}-2,2-diphenyl-ethyl)-carbamic Acid Pyridin-3-ylmethyl Ester] as the compound, how does the pKi read?
The pKi was greater than 8.42.

With CCCCN[C@@H](Cc1ccc2ccccc2c1)C(=O)NCCCC[C@@H](CO)N(CC(C)C)S(=O)(=O)c1ccc(N)cc1 [Example 68, (2S,5S)-N-{5-[(4-Amino-benzenesulfonyl)-isobutyl-amino]-6-hydroxy-hexyl}-2-butylamino-3-naphthalen-2-yl-propionamide] as the compound, how does the pKi read?
The pKi was 8.24.

CC(C)CN([C@H](CO)CCCCNC(=O)[C@H](Cc1ccc2ccccc2c1)NC(=O)c1ccncc1)S(=O)(=O)c1ccc(F)c(N)c1 [Example 84, (1S,5S)-N-(1-{5-[(3-Amino-4-fluoro-benzenesulfonyl)-isobutyl-amino]-6-hydroxy-hexylcarbamoyl}-2-naphthalen-2-yl-ethyl)-isonicotinamide] was tested. Which pKi did it give?
Its pKi is greater than 8.42.

With COC(=O)N[C@@H](Cc1cccc2ccccc12)C(=O)NCCCC[C@@H](CO)N(CC(C)C)S(=O)(=O)c1ccc(N)cc1 [Example 28, (1S,5S)-(1-{5-[(4-Amino-benzenesulfonyl)-isobutyl-amino]-6-hydroxy-hexylcarbamoyl}-2-naphthalen-1-yl-ethyl)-carbamic Acid Methyl Ester] as the compound, how does the pKi read?
The pKi was 8.92.

With CC(C)CN([C@H](CO)CCCCNC(=O)[C@@H](NC(=O)c1ccccn1)C(c1ccccc1)c1ccccc1)S(=O)(=O)c1ccc(N)cc1 [Example 96, (1S,5S)-Pyridine-2-carboxylic Acid (1-{5-[(4-Amino-benzenesulfonyl)-isobutyl-amino]-6-hydroxy-hexylcarbamoyl}-2,2-diphenyl-ethyl)-amide] as the compound, how does the pKi read?
The pKi was greater than 8.42.

CC(C)CN([C@H](CO)CCCCNC(=O)[C@H](Cc1ccc2ccccc2c1)NC(=O)C1CCCCC1)S(=O)(=O)c1ccc(F)c(N)c1 [Example 88, (1S,5S)-Cyclohexanecarboxylic Acid (1-{5-[(3-Amino-4-fluoro-benzenesulfonyl)-isobutyl-amino]-6-hydroxy-hexylcarbamoyl}-2-naphthalen-2-yl-ethyl)-amide] was tested. Which pKi did it give?
The pKi was greater than 8.42.

CC(C)CN([C@H](CO)CCCNC(=O)[C@@H](N)Cc1cccc2ccccc12)S(=O)(=O)c1ccc(N)cc1 [Example 8, (2S,4S)-2-Amino-N-{4-[(4-amino-benzenesulfonyl)-isobutyl-amino]-5-hydroxy-pentyl}-3-naphthalen-1-yl-propionamide] was tested. Which pKi did it give?
The pKi was 8.80.

How did the pKi turn out when CC(C)CN([C@H](CO)CCCCNC(=O)[C@@H](NC(=O)OCc1ccncc1)C(c1ccccc1)c1ccccc1)S(=O)(=O)c1ccc(N)cc1 [Example 101, (1S,5S)-(1-{5-[(4-Amino-benzenesulfonyl)-isobutyl-amino]-6-hydroxy-hexylcarbamoyl}-2,2-diphenyl-ethyl)-carbamic Acid Pyridin-4-ylmethyl Ester] was run?
The pKi was greater than 8.42.

CC(=O)OCCN[C@@H](Cc1cccc2ccccc12)C(=O)NCCC[C@@H](CO)N(CC(C)C)S(=O)(=O)c1ccc(N)cc1 [Example 21, (1S,4S)-Acetic Acid 2-(1-{4-[(4-Amino-benzenesulfonyl)-isobutyl-amino]-5-hydroxy-pentylcarbamoyl}-2-naphthalen-1-yl-ethylamino)-ethyl Ester] was tested. Which pKi did it give?
The pKi was 8.41.

With CC(C)CN([C@H](CO)CCCCNC(=O)[C@@H](NC(=O)c1ccc(O)c([N+](=O)[O-])c1)C(c1ccccc1)c1ccccc1)S(=O)(=O)c1ccc(N)cc1 [Example 103, (1S,5S)-N-(1-{5-[(4-Amino-benzenesulfonyl)-isobutyl-amino]-6-hydroxy-hexylcarbamoyl}-2,2-diphenyl-ethyl)-4-hydroxy-3-nitro-benzamide] as the compound, how does the pKi read?
The pKi was greater than 8.42.

CC(C)CN([C@H](CO)CCCCNC(=O)[C@H](Cc1ccc(-c2ccccc2)cc1)NC(=O)OC(C)(C)C)S(=O)(=O)c1ccc(N)cc1 [Example 59, (1S,5S)-(1-{5-[(4-Amino-benzenesulfonyl)-isobutyl-amino]-6-hydroxy-hexylcarbamoyl}-2-biphenyl-4-yl-ethyl)-carbamic Acid tert-Butyl Ester] was tested. Which pKi did it give?
Its pKi is 8.22.

CC(C)CN([C@H](CO)CCCCNC(=O)[C@H](Cc1ccc2ccccc2c1)NC(=O)C1CCCC1)S(=O)(=O)c1ccc(N)cc1 [Example 60, (1S,5S)-Cyclopentanecarboxylic Acid (1-{5-[(4-Amino-benzenesulfonyl)-isobutyl-amino]-6-hydroxy-hexylcarbamoyl}-2-naphthalen-2-yl-ethyl)-amide] was tested. Which pKi did it give?
Its pKi is 8.72.

How did the pKi turn out when CC(C)CN([C@H](CO)CCCNC(=O)[C@@H](N)Cc1ccccc1-c1ccccc1)S(=O)(=O)c1ccc(N)cc1 [Example 14, (2S,4S)-2-Amino-N-{4-[(4-amino-benzenesulfonyl)-isobutyl-amino]-5-hydroxy-pentyl}-3-biphenyl-2-yl-propionamide] was run?
Its pKi is 8.15.

CCCCN[C@@H](Cc1cccc2ccccc12)C(=O)NCCC[C@@H](CO)N(CC(C)C)S(=O)(=O)c1ccc(N)cc1 [Example 20, (2S,4S)-N-{4-[(4-Amino-benzenesulfonyl)-isobutyl-amino]-5-hydroxy-pentyl}-2-butylamino-3-naphthalen-1-yl-propionamide] was tested. Which pKi did it give?
The pKi was 8.36.

With COC(=O)N[C@@H](Cc1ccccc1-c1cccc(F)c1)C(=O)NCCCC[C@@H](CO)N(CC(C)C)S(=O)(=O)c1ccc(N)c(Cl)c1 [Example 57, (1S,5S)-[1-{5-[(4-Amino-3-chloro-benzenesulfonyl)-isobutyl-amino]-6-hydroxy-hexylcarbamoyl}-2-(3′-fluoro-biphenyl-2-yl)-ethyl]-carbamic Acid Methyl Ester] as the compound, how does the pKi read?
The pKi was 8.77.

CC(C)CN([C@H](CO)CCCCNC(=O)[C@H](Cc1ccc2ccccc2c1)NC(=O)N1CCCC1)S(=O)(=O)c1ccc(F)c(N)c1 [Example 115, (1S,5S)Pyrrolidine-1-carboxylic Acid (1-{5-[(3-Amino-4-fluoro-benzenesulfonyl)-isobutyl-amino]-6-hydroxy-hexylcarbamoyl}-2-naphthalen-2-yl-ethyl)-amide] was tested. Which pKi did it give?
The pKi was greater than 8.42.

How did the pKi turn out when CCOC(=O)N[C@@H](Cc1cccc2ccccc12)C(=O)NCCC[C@@H](CO)N(CC(C)C)S(=O)(=O)c1ccc(N)cc1 [Example 18, (1S,4S)-(1-{4-[(4-Amino-benzenesulfonyl)-isobutyl-amino]-5-hydroxy-pentylcarbamoyl}-2-naphthalen-1-yl-ethyl)-carbamic Acid Ethyl Ester] was run?
Its pKi is 8.41.
